Values of other authors, collected in the PKSmart pharmacokinetics tables (Seal et al. 2025).

Assays:
[1] = Lombardo, Berellini, Obach 2018, Drug Metab Dispos 46:1466, doi 10.1124/dmd.118.082966; settings: human; for MRT / Vd / clearance / half-life: in vivo, iv; for fraction unbound: plasma
[2] = Lombardo et al. 2013, J Clin Pharmacol 53:178, doi 10.1177/0091270012440282; settings: for Vd / clearance: in vivo, iv; for fraction unbound: plasma

Structure (SMILES)	MRT [1] [h]	Vd [1] [L/kg]	clearance [1] [mL/min/kg]	half-life [1] [h]	fraction unbound [1]	Vd ([2]; rat) [L/kg]	clearance ([2]; rat) [mL/min/kg]	Vd ([2]; dog) [L/kg]	clearance ([2]; dog) [mL/min/kg]	Vd ([2]; monkey) [L/kg]	clearance ([2]; monkey) [mL/min/kg]	fraction unbound ([2]; dog)	fraction unbound ([2]; rat)	fraction unbound ([2]; monkey)
CC[C@@]1(O)C(=O)OCc2c1cc1n(c2=O)Cc2cc3c(N)cccc3nc2-1	5.6	2.2	6.5	7	0.003	5	150	–	–	–	–	–	–	–
CC(C)(C)NC(=O)C1CN(Cc2cccnc2)CCN1C[C@@H](O)CC(Cc1ccccc1)C(=O)N[C@H]1c2ccccc2C[C@H]1O (some centres undefined)	0.76	0.82	–	1	–	2.2	89	0.73	15	1.45	35.7	–	–	–
C[C@@H](O)C1C(=O)N2C(C(=O)O)=C(S[C@@H]3CNC(C(=O)Nc4cccc(C(=O)O)c4)C3)[C@H](C)[C@H]12 (some centres undefined)	4.4	0.12	0.45	3.8	0.1	0.34	10	–	–	0.17	0.47	–	–	–
CCCCCN(CCCOC)C(=O)C(CCC(=O)O)NC(=O)c1ccc(Cl)c(Cl)c1 (centres undefined)	2.4	0.21	2.35	3.2	–	0.98	6.01	0.34	30.7	–	–	0.021	0.0093	–
O=C(O)P(=O)(O)O	–	0.5	2.1	4.7	–	–	–	0.65	3.62	–	–	–	–	–
c1ccc(C2(N3CCCCC3)CCCCC2)cc1	23	6.9	5.1	16	–	12.6	66.3	16.6	54.1	6.78	36.6	0.43	0.37	0.314
CCCCS(=O)(=O)NC(Cc1ccc(OCCCCC2CCNCC2)cc1)C(=O)O (centres undefined)	1.8	0.34	3	1.6	0.36	1.42	–	0.52	36.4	–	–	0.55	0.15	–
O=c1c(O)c(-c2ccc(O)c(O)c2)oc2cc(O)cc(O)c12	0.2	0.12	11	0.6	0.009	0.28	116	–	–	–	–	–	–	–
NCCC(O)(P(=O)(O)O)P(=O)(O)O	12	1.8	2.5	32	0.7	0.18	15.2	–	–	–	–	–	–	–
COc1ccc(Cl)cc1[C@]1(F)C(=O)Nc2cc(C(F)(F)F)ccc21	11	10	15	37	0.0038	6.3	43	4.06	3.5	–	–	0.0067	–	–
CCN(CC)CCNC(=O)c1ccc(NC(C)=O)cc1	7.9	1.9	4	6.4	0.9	2.9	28	1.9	6.4	–	–	0.913	0.58	–
NC(=O)OC[C@@H]1C(=NC(=O)C(NOCC(=O)O)c2csc(N)n2)C(=O)N1S(=O)(=O)O (some centres undefined)	2	0.18	1.5	1.6	0.72	0.1	22	0.1	5.5	0.12	4.5	0.89	0.7	0.76
Cc1nnc2n1-c1ccc(Cl)cc1C(c1ccccc1Cl)=NC2	3.2	0.58	–	2.7	–	3.4	–	–	–	–	–	–	–	–
CCN(CCO)CCCC(C)Nc1ccnc2cc(Cl)ccc12 (centres undefined)	1300	700	11	850	0.57	14.6	28.2	–	–	–	–	–	0.62	–
CC1CC(=O)NN=C1c1ccc(NN=C(C#N)C#N)cc1 (centres undefined)	1.1	0.24	3.8	1.1	0.02	–	–	0.22	3.37	–	–	–	–	–
CSc1ccc(C(=O)c2[nH]c(=O)[nH]c2C)cc1	1.33	1.48	19.1	1.94	0.3	–	–	2.1	26	–	–	–	–	–
Nc1nc(N)c2nc(-c3ccccc3)c(N)nc2n1	3.4	13	63	4.3	0.42	2.2	10.1	–	–	–	–	–	–	–
Cc1cn([C@H]2C=C[C@@H](CO)O2)c(=O)[nH]c1=O	1.4	0.67	8.2	1.4	1	1.09	20.2	–	–	0.8	9.4	0.9	0.9	0.9
COc1ccc2c3c1O[C@H]1C[C@@H](O)C=C[C@@]31CCN(C)C2	6.8	2.3	5.6	5.3	–	5.2	31.7	2.78	12.3	–	–	0.981	0.75	–
CC[C@@]1(O)CC(=O)OCc2c1cc1n(c2=O)Cc2cc3cc(F)c(F)cc3nc2-1	3.87	1.42	8.42	3.1	0.126	2	23	2.1	21.5	–	–	–	–	–
CC1=C(C(=O)O)N2C(=O)C(NC(=O)C(N)C3=CCC=CC3)[C@H]2SC1 (some centres undefined)	1.1	0.21	3.3	0.85	–	1.1	21.7	–	–	–	–	–	–	–
CCCN(CCC)S(=O)(=O)c1ccc(C(=O)O)cc1	8.7	0.13	0.25	5.9	–	–	–	0.46	0.34	–	–	0.15	–	–
CCN(CC)C(=O)/C(C#N)=C/c1cc(O)c(O)c([N+](=O)[O-])c1	0.38	0.27	12	–	–	0.24	10.8	–	–	–	–	–	–	–
